Source: patent publication US20160319277A1, “METHODS OF IMPROVED PROTEIN PRODUCTION USING MIRNAs AND SIRNAs” (THE JOHNS HOPKINS UNIVERSITY, priority 2015, published 2016)

Each substance was assayed on HEK-CMV-Luc2-Hygro cells (assay: High-throughput genome-wide siRNA screen and validation screen for luciferase expression). Settings: Table 4; primary screen, 72 h, negative control = 100%.
Assay type: cell-based, human
How it was run: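 HEK cells with CMV-driven luciferase were reverse-transfected with 0.8 pmol siRNA per well (3 per gene) via RNAiMax and grown 72 h at 37 °C. Duplicate wells read for luciferase (ONE-Glo) and viability (CellTiter-Glo). Values given as % of plate negative-control median with MAD-based z-scores; hits with ≥2 siRNAs at z>3 retested using 3 new siRNAs.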

Row | Substance | Viable cell density (%) | per cell luciferase yield (%)
1 | 189 (GAACAAAAUAGACCUCUUATT; chemistry not given here; listed as Homo sapiens) [compound 189] | 101.897 | 162.677
2 | 190 (CUGUGGAAAAGAUACCGUATT; chemistry not given here; listed as Homo sapiens) [compound 190] | 95.368 | 152.850
3 | 191 (GCCCACUAUUCUCAGCUCATT; chemistry not given here; listed as Homo sapiens) [compound 191] | 66.121 | 214.156
4 | 192 (GCAUCUGUCCGAUCGCUCUTT; chemistry not given here; listed as Homo sapiens) [compound 192] | 105.514 | 143.889
5 | 193 (GGGACACUGUCAACCUCUATT; chemistry not given here; listed as Homo sapiens) [compound 193] | 74.811 | 205.132
6 | 194 (CAUCAAGCCCUGUAAGUCUTT; chemistry not given here; listed as Homo sapiens) [compound 194] | 89.583 | 163.431
7 | 195 (UGAAGAUAAUCGAGAAAUATT; chemistry not given here; listed as Homo sapiens) [compound 195] | 67.947 | 258.104
8 | 196 (ACAGGUCUUUAUCAAAGCATT; chemistry not given here; listed as Homo sapiens) [compound 196] | 100.201 | 153.426
9 | 197 (GACUCAGAGUAACAACGCATT; chemistry not given here; listed as Homo sapiens) [compound 197] | 95.471 | 162.372
10 | 198 (GCCUAGGAGUUAUCCUCUATT; chemistry not given here; listed as Homo sapiens) [compound 198] | 112.248 | 137.554
11 | 199 (CUAACUACCCAGACCCUUATT; chemistry not given here; listed as Homo sapiens) [compound 199] | 88.359 | 164.639
12 | 200 (GCAACAGAAUCGAGCAAGATT; chemistry not given here; listed as Homo sapiens) [compound 200] | 105.583 | 154.286
13 | 201 (CCCUGAAGGUUACCUCUUUTT; chemistry not given here; listed as Homo sapiens) [compound 201] | 63.690 | 273.535
14 | 202 (GGAUGACGAGCUGAACUUUTT; chemistry not given here; listed as Homo sapiens) [compound 202] | 113.437 | 140.103
15 | 203 (GAUUACUUCUUGACUAUCATT; chemistry not given here; listed as Homo sapiens) [compound 203] | 123.199 | 150.843
16 | 204 (CUCCCGCAGUUGAACAUCATT; chemistry not given here; listed as Homo sapiens) [compound 204] | 109.377 | 136.174
17 | 205 (CUCUGAUUGUCACCUCUUATT; chemistry not given here; listed as Homo sapiens) [compound 205] | 61.943 | 281.113
18 | 206 (GCUCCUCUGUUACCACAGATT; chemistry not given here; listed as Homo sapiens) [compound 206] | 91.526 | 179.268
19 | 207 (CGCUCACCAACAGCAGAAATT; chemistry not given here; listed as Homo sapiens) [compound 207] | 102.629 | 146.756
20 | 208 (CUUUUAAUGUUAAACUACATT; chemistry not given here; listed as Homo sapiens) [compound 208] | 110.986 | 133.601
21 | 209 (GAACUUCACAAGUUCCUCATT; chemistry not given here; listed as Homo sapiens) [compound 209] | 84.418 | 228.634
22 | 210 (CAAUGGAACAAUCAAAGUUTT; chemistry not given here; listed as Homo sapiens) [compound 210] | 89.607 | 180.764
23 | 211 (GGAUUACAGAAACUCCUAUTT; chemistry not given here; listed as Homo sapiens) [compound 211] | 82.634 | 188.258
24 | 212 (GAGCAGAGAUCAUAACCAATT; chemistry not given here; listed as Homo sapiens) [compound 212] | 108.211 | 141.104

Same assay, conditions: Table 6; polyamine pathway gene siRNAs

Row | Substance | Luciferase activity (%) | Per cell luciferase yield (%) | Viable cell number (%)
25 | 213 (GGCUGAAUGUAACAGAGGATT; chemistry not given here; listed as Homo sapiens) [compound 213] | 127.6 | 134.5 | 94.9
26 | 214 (CCGUAGACUCGCUCAUCUCTT; chemistry not given here; listed as Homo sapiens) [compound 214] | 174.4 | 204.2 | 85.4
27 | 215 (GCUAACUUAUUCUACUCCGTT; chemistry not given here; listed as Homo sapiens) [compound 215] | 171.1 | 154.7 | 110.6
28 | 216 (GGGAAUAGUCAGAGGGAUCTT; chemistry not given here; listed as Homo sapiens) [compound 216] | 92.8 | 90.4 | 102.7
29 | 217 (ACAUCGUCCACUUCCAGUATT; chemistry not given here; listed as Homo sapiens) [compound 217] | 97.4 | 101.1 | 96.3
30 | 218 (GGACCUCCCUGUGAAUGAUTT; chemistry not given here; listed as Homo sapiens) [compound 218] | 95.4 | 110.9 | 86.0
31 | 219 (CAGAUGGAUUAUUAGCUGATT; chemistry not given here; listed as Homo sapiens) [compound 219] | 94.9 | 90.0 | 105.4
32 | 220 (CCGGGAAAGUUUGACUGCATT; chemistry not given here; listed as Homo sapiens) [compound 220] | 101.5 | 133.9 | 75.8
33 | 221 (CCACGACCAGCUUAAAGAATT; chemistry not given here; listed as Homo sapiens) [compound 221] | 90.5 | 94.5 | 95.76
34 | 222 (GACUUUCACUUCCGCCUUATT; chemistry not given here; listed as Homo sapiens) [compound 222] | 74.3 | 84.7 | 87.7
35 | 223 (GAUGACUUUUGAUAGUGAATT; chemistry not given here; listed as Homo sapiens) [compound 223] | 18.0 | 32.1 | 56.1
36 | 224 (GCAUGUAUCUGCUUGAUAUTT; chemistry not given here; listed as Homo sapiens) [compound 224] | 20.0 | 39.4 | 50.7
37 | 225 (GCUUGCAGUUAAUAUCAUUTT; chemistry not given here; listed as Homo sapiens) [compound 225] | 28.4 | 46.7 | 60.8
38 | 226 (CACUCGCAGUUAAUAUCAUTT; chemistry not given here; listed as Homo sapiens) [compound 226] | 25.2 | 39.0 | 64.6
39 | 227 (CGAUGAACAUGUUAGACAUTT; chemistry not given here; listed as Homo sapiens) [compound 227] | 30.4 | 42.2 | 72.1
40 | 228 (GCCCUCUGUUGGAUAUCUATT; chemistry not given here; listed as Homo sapiens) [compound 228] | 45.6 | 63.2 | 72.1
